Data set [1] can be described thus: Aqueous solubility (comparison in words). It is filed as physicochemical. Conditions: compared to other analogs.
For data set [2], the system named is OSM-induced pSTAT3 in MDA-MB-231 human breast cancer cells. The data set can be described thus: pSTAT3 ELISA in MDA-MB-231 cells treated with OSM ± SMI. The class given is cell-based. Conditions: SMI 10 μM, OSM 10 ng/mL, 30 min. Here is the method:
2 High-throughput virtual screening identifies three novel compounds capable of interacting with site III of OSM. […] (F) Structure of parent SMI-10. Data are presented as mean ± SD relative to + OSM treatment, analyzed by one-way ANOVA with Tukey’s posttest *p < 0.05, **p < 0.01. To test the effect of SMIs in vitro, each SMI was incubated with OSM for a period of 1 h at 37 °C, and T47D and MDA-MB-231 human breast cancer cell lines were subsequently treated with OSM (10 ng/mL) and/or SMI-10 (10 μM) analogs for 30 min and measured for pSTAT3 levels via ELISA. The results of these assays are presented graphically in Figure and, for T47D cells, in Table as a percentage of reduction from +OSM alone. For phospho-STAT3 (pSTAT3) ELISAs, T47D MDA-MB-231, and MCF-7 cells were seeded in 12- or 24-well plates at 70–75% confluency and allowed to adhere overnight, after which cells were serum-starved with serum-free RPMI-1640 for 4 h. SMIs (10 μM in DMSO or serially diluted to specified concentrations from a 100 mM stock in DMSO) and human recombinant OSM (10 ng/mL; PeproTech; #300–10T-10UG) were incubated in serum-free RPMI-1640 medium for 1 h. After incubation, the SMI-10 analogs or SMI-10B13 and OSM were added to the serum-starved cells for 30 min. Immediately afterward, the cells were lysed using 1x PathScan Sandwich ELISA Lysis Buffer (Cell Signaling Technology; #7018S), collected, and stored at −20 °C. Lysates were analyzed for pSTAT3 levels using either the PathScan Phospho-STAT3 (Tyr705) Sandwich ELISA Antibody Pair kit (Cell Signaling Technology; #7146) or Human/Mouse Phospho-STAT3 (Y705) DuoSet IC ELISA (R&D Systems; DYC4607B), according to manufacture’s protocol. pSTAT3 expression was measured with absorbance at 450 nm and quantified by comparison relative to OSM-induced pSTAT3 levels. To calculate an IC50 for SMI-10B13, a standard curve was generated as described in the DuoSet IC ELISA datasheet to determine the concentration of pSTAT3.
(In general: In an ELISA, binding on a coated surface is turned into a signal by an enzyme label.)

The target of data set [3] is T1, OSM (Homo sapiens, UniProt P13725).
T1 sequence (P13725 26-252): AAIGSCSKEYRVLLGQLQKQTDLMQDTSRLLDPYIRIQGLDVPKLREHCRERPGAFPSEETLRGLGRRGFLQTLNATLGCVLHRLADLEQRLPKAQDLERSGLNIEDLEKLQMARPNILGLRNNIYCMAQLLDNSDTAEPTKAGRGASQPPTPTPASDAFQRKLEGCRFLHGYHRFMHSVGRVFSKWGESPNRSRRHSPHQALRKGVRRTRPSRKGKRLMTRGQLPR
Details: method as in earlier report of the authors (Mass et al.). Conditions: binds to OSM's site III pocket; ref earlier report of the authors (Mass et al.); read-out: dissociation constant (KD), previously described; cited from earlier work.

The subject of data set [4] is MCF-7-luc-OSM-overexpressing breast tumor cells. The data set can be described thus: ER+ orthotopic xenograft, survival and metastasis over 50 days. It is filed as in vivo, athymic nu/nu mice. Here is the method:
To evaluate the effectiveness of SMI-10B13 against survivability and metastasis, we performed a related but separate experiment. As before, mice were treated with either vehicle or SMI-10B13 12 h prior to tumor cell injection and monitored for tumor growth while receiving treatment 3x weekly (Figure A). […] After 50 days, all mice were sacrificed, and metastases were evaluated with ex vivo imaging. […] Thus, for the first time, we have shown that an anti-OSM small molecule inhibitor may inhibit breast cancer progression and metastasis.
(§1) Seven- to eight-week-old athymic nu/nu mice were purchased from Jackson Laboratory and quarantined for 6 days. Twelve hours before tumor cell injection, the mice were grouped and injected intraperitoneally (i.p.) with 50 mg/kg of SMI-10B13 or vehicle (10% DMSO, 10% EtOH, 20% Cremophor EL, 60% propylene glycol; diluted in half with PBS). The following morning, MCF-7-Luc-flOSM cells (described above) were grown to 70–75% confluency, and the cells were concentrated to 4.0 × 10^7 cells/mL in PBS containing serum-free RPMI-1640. A 50 μL cell suspension was injected into the fourth mammary fat pad, resulting in 2.0 × 10^6 cells/injection. Mice were then injected (via i.p.) 3x weekly with SMI-10B13 or the vehicle control. Mice were also injected 1x weekly with D-luciferin (PerkinElmer; 122799–5) for bioluminescence detection for a period of 40–50 days, and 3x weekly for tumor growth via caliper measurement. Animals were sacrificed, and their serum and tumors were collected for analysis. Organs were harvested, and ex vivo imaging was performed to evaluate metastasis. All in vivo and ex vivo imaging was performed as previously described. All animal experiments were performed following the protocols evaluated and approved by the Boise State University Institutional Animal Care and Use Committee (IACUC) (Ethics Approval Number: AC23-043).

Data set [5] has as its target T2, gp130 binding to immobilized OSM (Homo sapiens, UniProt P13725).
T2 construct: purchased R&D Systems 671-GP
T2 sequence (P13725 26-212 limits assumed): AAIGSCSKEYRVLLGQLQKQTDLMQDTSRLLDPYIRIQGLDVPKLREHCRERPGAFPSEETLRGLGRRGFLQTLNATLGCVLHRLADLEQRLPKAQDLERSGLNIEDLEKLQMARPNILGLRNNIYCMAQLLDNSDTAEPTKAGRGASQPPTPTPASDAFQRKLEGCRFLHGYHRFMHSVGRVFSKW
The data set can be described thus: SPR surface competition binding assay between gp130 and SMI for immobilized OSM. Conditions: gp130 50 nM.
Experimental: SPR experiments were performed on a Reichert SR7000 instrument that was fed by a Surveyor LC autosampler and pump. All experiments were conducted at 25 °C. In all experiments, OSM (∼24 kDa; as previously described) was immobilized to the surface of a PEF-10% carboxyl mixed self-assembled monolayer gold sensor chip (Reichert part #13206061), and the experiments were completed within 3 days. The immobilization phase was conducted using sterile-filtered, fresh 10 mM acetate buffer, pH 5, at a flow rate of 15 μL/min. The chip was first washed with 100 μL of 2 M NaCl in DI water and 100 μL of 10 mM NaOH in DI water. The chip was activated with a 100 μL injection of 10 mg/mL N-hydroxysuccinimide (NHS) and 40 mg/mL 1-ethyl-3-(3-dimethylaminopropyl)­carbodiimide (EDC) mixed in 1 mL of nanopure water immediately before injecting. Then, a 200 μg/mL solution of OSM (100–300 μL) in acetate buffer was diluted and injected multiple times with 100 μL injections to achieve a response of about 600–1000 RU. The remaining reactive NHS groups were then deactivated with a 100 μL injection of 1 M ethanolamine hydrochloride in DI H2O. […] The real-time changes in refractive index units of the association and dissociation phases were monitored. […]

For data set [6], the system named is MCF-7-luc-OSM-overexpressing cells. The class given is in vivo. Here is the method: To evaluate SMI-10B13 on OSM inhibition in vivo, athymic nu/nu mice were randomized and given equal dose of either vehicle or SMI-10B13 (50 mg/kg) 12 h before tumor cell injection. Mice were then injected with 2 × 10^6 cells in the fourth mammary fat pad and monitored for tumor growth over 40 days, receiving either vehicle or SMI-10B13 treatment 3x weekly and evaluated for tumor growth until the end point of the experiment (Figure A).
as §1

Results on two compounds are retold here after publication PMC12362618, “Development of the First Small-Molecule Inhibitor Targeting Oncostatin M for Treatment of Breast Cancer” (Journal of Medicinal Chemistry, 2025).

In general, Kd refers to the free concentration of one partner at which half of the binding sites on the other are occupied at equilibrium, for simple one-to-one binding. One may read the IC50 as the concentration that gives 50% inhibition.

Entries after “also recorded” stand apart in the source; their conditions may differ. Bounds are passed on as bounds.

As to `O=C(O)/C=C/c1cc(-c2ccc3c(c2)OCO3)c(-c2ccc3c(c2)OCO3)o1` [SMI-10B, (E)-3-(4,5-Bis(benzo[d][1,3]dioxol-5-yl)furan-2-yl)acrylic acid], the “Aqueous solubility” value in data set [1] was “increased aqueous solubility compared to other analogs”. The “Inhibition of OSM-induced pSTAT3 via ELISA” value in data set [2] is recorded as “capable of inhibiting OSM-induced pSTAT3”. Moreover, in data set [3], the Kd was < 13 µM.
Turning to `O=C(O)/C=C/c1cc(-c2ccc3cc[nH]c3c2)c(-c2ccc3cc[nH]c3c2)o1` [SMI-10B13, (E)-3-(4,5-di(1H-Indol-6-yl)furan-2-yl)acrylic Acid], the “Survival (Kaplan-Meier) vs vehicle” value in data set [4] (50 mg/kg i.p. 3x weekly, 50 days, p = 0.04) is “improved survival; also recorded: prolonged survival; also recorded: increase survival”. Further, the “Lung metastases fluorescent intensity (ex vivo imaging)” value in data set [4] (50 mg/kg i.p. 3x weekly, after 50 days) is reported as 41.9 × 10^5 intensity. Moreover, the “Tumor size vs vehicle” value in data set [4] (50 days experiment, end point) was “overall smaller tumors”. Moreover, the “Lung metastasis intensity vs vehicle” value in data set [4] (ex vivo imaging, 50 days) is recorded as “reduction in intensity was not statistically significant; also recorded: trend toward significance in decreasing lung metastasis intensity”. In data set [5] (SMI 100 μM), the “Inhibition of gp130 binding to immobilized OSM” value is listed as “almost completely inhibited”. In addition, the IC50 in data set [5] (SPR surface competition, estimated, read-out: estimated IC50 for inhibition of gp130 binding to immobilized OSM) was 30 to 100 µM. For the same compound, in data set [6] (50 mg/kg i.p. 3x weekly, 40 days, caliper), the “Tumor size diameter (mm) at end point vs vehicle control” value is reported as “significant reduction in tumor mm size”. Moreover, in data set [6] (50 mg/kg i.p. 3x weekly, 40 days, weekly imaging), the “Bioluminescent tumor detection vs vehicle control” value is recorded as “significant reduction in bioluminescent detection”. In addition, in data set [6] (mouse, in vivo), the “Signs of drug-related toxicity in mice” value was “none of the mice injected with SMI exhibited any signs of drug-related toxicity”.
